Data taken from ChEMBL document CHEMBL1143039, “Further modification on phenyl acetic acid based quinolines as liver X receptor modulators” (Bioorg Med Chem, 2007).

What was measured:
[1] = target: T1, Oxysterols receptor LXR-alpha (Homo sapiens) (UniProt Q13133); assay: Agonist activity at human recombinant LXRalpha expressed in Huh7 cells by GAL4 transactivation assay relative to TO901317; assay type: functional, cell-based; conditions: Huh-7
T1 sequence (whole entry): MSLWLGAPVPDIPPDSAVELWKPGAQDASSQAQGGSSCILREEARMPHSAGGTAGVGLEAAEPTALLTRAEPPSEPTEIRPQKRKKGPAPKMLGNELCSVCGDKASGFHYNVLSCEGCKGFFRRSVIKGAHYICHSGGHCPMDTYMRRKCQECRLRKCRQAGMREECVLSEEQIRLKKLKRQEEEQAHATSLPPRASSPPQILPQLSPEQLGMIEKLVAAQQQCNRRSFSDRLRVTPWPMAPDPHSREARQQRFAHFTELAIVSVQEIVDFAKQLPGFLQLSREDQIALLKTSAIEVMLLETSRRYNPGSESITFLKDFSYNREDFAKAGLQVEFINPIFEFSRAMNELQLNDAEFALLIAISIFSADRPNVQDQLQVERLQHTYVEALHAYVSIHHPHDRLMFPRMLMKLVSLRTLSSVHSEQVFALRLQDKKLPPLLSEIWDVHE

[2] = target: T2, Peroxisome proliferator-activated receptor gamma (Homo sapiens, UniProt P37231); assay: Agonist activity at human recombinant PPARgamma by GAL4 transactivation assay; assay type: functional
T2 sequence (P37231 whole entry): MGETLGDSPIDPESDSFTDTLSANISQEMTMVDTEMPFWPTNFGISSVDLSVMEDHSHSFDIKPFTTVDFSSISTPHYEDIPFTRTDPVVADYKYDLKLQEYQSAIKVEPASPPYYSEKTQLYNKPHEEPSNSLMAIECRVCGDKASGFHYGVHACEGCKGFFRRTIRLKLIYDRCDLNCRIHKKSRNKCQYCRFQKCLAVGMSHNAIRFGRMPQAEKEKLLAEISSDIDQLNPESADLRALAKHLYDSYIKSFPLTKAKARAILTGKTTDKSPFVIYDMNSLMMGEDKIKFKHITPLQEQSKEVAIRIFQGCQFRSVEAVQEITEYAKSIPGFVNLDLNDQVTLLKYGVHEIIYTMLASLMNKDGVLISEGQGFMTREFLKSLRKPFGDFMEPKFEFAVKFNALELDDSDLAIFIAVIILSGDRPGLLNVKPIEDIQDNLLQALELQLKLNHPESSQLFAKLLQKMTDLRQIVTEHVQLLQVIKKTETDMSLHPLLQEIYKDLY

[3] = test system: Huh-7; assay: Increase in SREBP1c gene expression in Huh7 cells relative to TO901317; assay type: functional, Homo sapiens
[4] = test system: THP-1; assay: Increase in ABCA1 gene expression in THP1 cells relative to TO901317; assay type: functional, Homo sapiens
[5] = target: T3, Peroxisome proliferator-activated receptor gamma (Homo sapiens) (UniProt P37231); assay: Agonist activity at human recombinant PPARgamma by GAL4 transactivation assay relative to rosiglitazone; assay type: functional
T3 sequence (whole entry): T2 sequence (P37231 whole entry)

[6] = target: T4, Peroxisome proliferator-activated receptor alpha (Homo sapiens) (UniProt Q07869); assay: Agonist activity at human recombinant PPARalpha by GAL4 transactivation assay relative to WY-14643; assay type: functional
T4 sequence (whole entry): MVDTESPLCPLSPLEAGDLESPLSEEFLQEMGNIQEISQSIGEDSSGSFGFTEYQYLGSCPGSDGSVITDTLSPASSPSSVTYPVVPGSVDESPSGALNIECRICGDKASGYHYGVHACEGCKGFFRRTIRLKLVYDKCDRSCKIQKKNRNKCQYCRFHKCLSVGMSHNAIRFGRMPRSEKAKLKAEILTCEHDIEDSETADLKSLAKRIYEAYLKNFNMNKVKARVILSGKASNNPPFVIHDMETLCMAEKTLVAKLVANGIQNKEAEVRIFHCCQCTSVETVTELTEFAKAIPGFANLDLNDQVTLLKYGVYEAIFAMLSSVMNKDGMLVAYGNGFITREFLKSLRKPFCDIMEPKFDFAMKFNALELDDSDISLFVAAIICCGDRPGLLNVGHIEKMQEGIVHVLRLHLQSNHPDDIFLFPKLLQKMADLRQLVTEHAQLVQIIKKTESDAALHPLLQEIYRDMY

[7] = Volume of distribution in C57BL/6 mouse at 1 mg/kg, iv; assay type: ADME, organism-based; design: dose 1 mg/kg, route intravenous; conditions: in vivo, read-out: Vss
[8] = test system: Mus musculus; assay: Increase in plasma triglyceride level in C57BL/6 ApoE knockout mouse at 10 mg/kg, po for 12 weeks; assay type: functional
[9] = target: T5, Oxysterols receptor LXR-beta (Homo sapiens, UniProt P55055)
T5 sequence (P55055 whole entry): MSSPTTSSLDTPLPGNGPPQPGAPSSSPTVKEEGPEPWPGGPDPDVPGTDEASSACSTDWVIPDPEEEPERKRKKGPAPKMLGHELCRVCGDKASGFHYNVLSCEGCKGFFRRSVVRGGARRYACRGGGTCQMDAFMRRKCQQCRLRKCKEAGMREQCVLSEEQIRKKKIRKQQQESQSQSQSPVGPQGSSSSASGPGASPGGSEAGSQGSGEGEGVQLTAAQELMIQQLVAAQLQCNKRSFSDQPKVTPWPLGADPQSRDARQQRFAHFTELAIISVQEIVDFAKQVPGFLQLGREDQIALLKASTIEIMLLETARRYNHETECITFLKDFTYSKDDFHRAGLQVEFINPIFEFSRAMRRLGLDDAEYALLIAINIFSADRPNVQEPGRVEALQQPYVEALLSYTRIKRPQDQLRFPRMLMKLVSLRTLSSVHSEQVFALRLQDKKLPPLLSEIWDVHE
Description: Agonist activity at human recombinant LXRbeta expressed in CHO cells

[10] = test system: Mus musculus; assay: Reduction of aortic arch lesion in C57BL/6 ApoE knockout mouse at 10 mg/kg, po for 12 weeks; assay type: functional, Pharyngeal arch artery; design: scale not given: the % may be the effect or the level left
[11] = Half life in C57BL/6 mouse at 1 mg/kg, iv; assay type: ADME, organism-based; design: dose 1 mg/kg, route intravenous; conditions: in vivo
[12] = Tmax in C57BL/6 mouse at 10 mg/kg, po; assay type: ADME, organism-based; design: dose 10 mg/kg, route oral; conditions: in vivo
[13] = target: T6, Peroxisome proliferator-activated receptor alpha (Homo sapiens, UniProt Q07869); assay: Agonist activity at human recombinant PPARalpha by GAL4 transactivation assay; assay type: functional
T6 sequence (Q07869 whole entry): T4 sequence (whole entry)

[14] = AUC (infinity) in C57BL/6 mouse at 10 mg/kg, po; assay type: ADME, organism-based; design: time infinity, dose 10 mg/kg, route oral; conditions: plasma
[15] = target: T5, Oxysterols receptor LXR-beta; assay: biochemical
Description: Displacement of [3H]T0901317 from human recombinant LXRbeta expressed in CHO cells

[16] = Bioavailability in C57BL/6 mouse at 10 mg/kg, po; assay type: ADME, organism-based; conditions: in vivo
[17] = Half life in C57BL/6 mouse at 10 mg/kg, po; assay type: ADME, organism-based; design: dose 10 mg/kg, route oral; conditions: in vivo
[18] = test system: Liver microsomes; assay: Stability in human liver microsomes; assay type: ADME, Microsome
[19] = target: T7, Oxysterols receptor LXR-beta (Homo sapiens) (UniProt P55055); assay: Agonist activity at human recombinant LXRbeta expressed in Huh7 cells by GAL4 transactivation assay relative to TO901317; assay type: functional, cell-based; conditions: Huh-7
T7 sequence (whole entry): T5 sequence (P55055 whole entry)

[20] = test system: Huh-7; assay: Increase in SREBP1c gene expression in Huh7 cells; assay type: functional, cell-based; conditions: Homo sapiens
[21] = target: T8, Peroxisome proliferator-activated receptor delta (Homo sapiens, UniProt Q03181); assay: Agonist activity at human recombinant PPARdelta by GAL4 transactivation assay; assay type: functional
T8 sequence (Q03181 whole entry): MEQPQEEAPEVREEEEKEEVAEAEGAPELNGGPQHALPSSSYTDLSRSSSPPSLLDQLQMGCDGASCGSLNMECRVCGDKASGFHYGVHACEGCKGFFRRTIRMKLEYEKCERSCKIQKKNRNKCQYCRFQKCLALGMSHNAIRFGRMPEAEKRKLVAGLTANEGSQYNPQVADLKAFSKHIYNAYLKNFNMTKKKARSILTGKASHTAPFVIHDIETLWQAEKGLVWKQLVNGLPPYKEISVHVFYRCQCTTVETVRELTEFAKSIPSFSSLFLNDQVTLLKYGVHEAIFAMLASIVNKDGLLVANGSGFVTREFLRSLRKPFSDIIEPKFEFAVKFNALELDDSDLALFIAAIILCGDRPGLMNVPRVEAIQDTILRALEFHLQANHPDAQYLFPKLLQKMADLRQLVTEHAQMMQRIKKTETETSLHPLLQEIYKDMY

[22] = Clearance in C57BL/6 mouse at 1 mg/kg, iv; assay type: ADME, organism-based; design: dose 1 mg/kg, route intravenous; conditions: in vivo
[23] = Stability in mouse liver microsomes; assay type: ADME, Microsome
[24] = Cmax in C57BL/6 mouse at 10 mg/kg, po; assay type: ADME, organism-based; design: dose 10 mg/kg, route oral; conditions: in vivo
[25] = target: T9, Oxysterols receptor LXR-alpha (Homo sapiens, UniProt Q13133); assay: Agonist activity at human recombinant LXRalpha expressed in Huh7 cells by GAL4 transactivation assay; assay type: functional, cell-based, Huh-7
T9 sequence (Q13133 whole entry): T1 sequence (whole entry)

[26] = target: T5, Oxysterols receptor LXR-beta; assay: Agonist activity at human recombinant LXRbeta expressed in Huh7 cells by GAL4 transactivation assay; assay type: functional, cell-based, Huh-7
[27] = target: T9, Oxysterols receptor LXR-alpha; assay: biochemical
Description: Displacement of [3H]T-0901317 from human recombinant LXRalpha expressed in CHO cells

[28] = test system: Mus musculus; assay: Reduction in aortic arch lesion area in C57BL/6 ApoE knockout mouse at 10 mg/kg, po for 12 weeks; assay type: functional, Pharyngeal arch artery
[29] = test system: THP-1; assay: Increase in ABCA1 gene expression in THP1 cells; assay type: functional, cell-based; conditions: Homo sapiens

SMILES | Activity [1] [%] | EC50 [2] [nM] | Activity [3] [%] | Activity [4] [%] | Activity [5] [%] | Activity [6] [%] | Vd [7] [L/kg] | Activity [8] [mg/dL] | EC50 [9] [nM] | Activity [10] [%] | half-life [11] [h] | Tmax [12] [h] | EC50 [13] [nM] | AUC(0-inf) [14] [ng·h/mL] | IC50 [15] [nM] | bioavailability [16] [%] | half-life [17] [h] | Stability [18] | IC50 [27] [nM] | aortic arch lesion area [28] [%] | further results
Cc1cccc2c(-c3cccc(NCc4ccc(CC(=O)O)cc4)c3)c(Cc3ccccc3)cnc12 | 101 | 1030 | 114 | 139 | 46.6 | 7.5 | 1.2 | 15.2 | 90 | 57 | 1.6 | 0.25 | 1770 | 3580 | 5 | 53 | 1.2 | Stable | 21 | 4.09 | Activity [19]: 75%; EC50 [20]: 51.4 nM; EC50 [21]: 1970 nM; clearance [22]: 25 mL/min/kg; Stability [23]: Stable; Cmax [24]: 4190 ng/mL; EC50 [25]: 467 nM; EC50 [26]: 267 nM; EC50 [29]: 438 nM
O=C(O)/C=C/c1ccc(CNc2cccc(-c3c(C(=O)c4ccccc4)cnc4c(C(F)(F)F)cccc34)c2)cc1 |  |  |  |  |  |  |  |  |  |  |  |  |  |  | > 10000 |  |  |  | > 10000 |  | 
O=C(O)Cc1cccc(OCCCN(Cc2cccc(C(F)(F)F)c2Cl)CC(c2ccccc2)c2ccccc2)c1 |  |  |  |  |  |  |  | 2.95 |  | 79 |  |  |  |  |  |  |  |  |  | 1.99 | 
NC(=O)c1cnc2c(C(F)(F)F)cccc2c1-c1cccc(NCc2ccc(CC(=O)O)cc2)c1 |  |  |  |  |  |  |  |  |  |  |  |  |  |  | > 10000 |  |  |  | > 10000 |  | 
O=C(O)Cc1ccc(CNc2cccc(-c3c(Cc4ccccc4)cnc4c(Cl)cccc34)c2)cc1 | 89 | 506 | 137 | 162 | 50.6 | 12 | 1.8 | 64.56 | 23 | 53 | 1.8 | 0.25 | 2050 | 2580 | 1.4 | 57 | 1.2 | Stable | 5 | 4.47 | Activity [19]: 67%; EC50 [20]: 75 nM; EC50 [21]: 631 nM; clearance [22]: 37 mL/min/kg; Stability [23]: Stable; Cmax [24]: 2500 ng/mL; EC50 [25]: 121 nM; EC50 [26]: 54 nM; EC50 [29]: 81 nM
